Test results as given in patent publication US11167059B2, “Compositions with reactive ingredients, and wound dressings, apparatuses, and methods” (KCI Licensing, Inc., priority 2010, dated 2021).

Assays:
Assay type in all cases: cell-based
[1] = test system: Staphylococcus aureus ATCC 10832; assay: Log reduction, multiple cycles, S. aureus ATCC 10832; conditions: 30 seconds per cycle
Protocol: (§1) Referring now to FIG. 17, the experiments described above for FIG. 14 were also performed with additional foams, one foam in which 1 gram of Calcium hypochlorite salt was infused (D100, shown as left column for each cycle), and one foam in which 2 grams of Calcium hypochlorite salt was dispersed (D200, shown as right column for each cycle). […] As discussed additionally below, the minimum concentration is significant because testing identified concentrations of hypochlorite-ion as low as 0.5-0.7 mM to have effective antibacterial and antimicrobial properties. Additional testing was performed to measure the zone of inhibition (ZOI) and Log Reduction of microbes for various samples of released aqueous solutions having various concentrations of hypochlorite ion, as listed in Tables 2 and 3. Table 2 lists ZOI and Log reduction data for a single cycle measured at hold times (exposure duration) of 30 seconds and 5 minutes of bacterial exposure to solution. Table 3 lists ZOI and Log reduction data for multiple cycles (each cycle including introduction of hypochlorite solution, and removal of solution prior to beginning next cycle). In the ZOI experimentation, foam discs having a diameter of 8 millimeters (mm) and a height of 5 mm were each saturated with hypochlorite-ion solution as indicated. Table 3 also lists the initial microbe count in log form (10^X, where X is listed in Table 2), log reduction in microbe count, and ZOI in mm. For the data of Table 3, the initial concentration (1×) of hypochlorite ion in solution was 5.7 mM of hypochlorite ion, which corresponds to 0.041% w/v of Ca(OCl)^2. In the Log reduction experimentation, the microbes were exposed to the respective concentration of solution for 30 seconds per cycle. […] The bold entries in Table 3 are indicative of substantially all microbes being killed. In the biofilm eradication cycles listed in Table 6 below, probes were cultured with microbes and incubated to permit formation of a biofilm on the probe. The probe was then exposed to solutions having various concentrations of Calcium hypochlorite solution for multiple cycles, with each cycle including exposure of the probe to solution for a duration of 5 minutes.

[2] = test system: Staphylococcus aureus USA 400 (MRSA); assay: Minimum Bactericidal Concentration (MBC), S. aureus USA 400 (MRSA); conditions: % w/v Ca(OCl)2 in water
Protocol: as §1, with “The probe was then exposed to solutions having various concentrations of Calcium hypochlorite solution for multiple cycles, with each cycle including exposure of the probe to solution for a duration of 5 minutes.” left out

[3] = test system: Pseudomonas aeruginosa ATCC 27853; assay: Minimum Bactericidal Concentration (MBC), P. aeruginosa; conditions: % w/v Ca(OCl)2 in water
Protocol: as §1, with “The probe was then exposed to solutions having various concentrations of Calcium hypochlorite solution for multiple cycles, with each cycle including exposure of the probe to solution for a duration of 5 minutes.” left out

[4] = test system: Staphylococcus aureus USA 400 (MRSA); assay: Minimum Biofilm Eradication Concentration (MBEC), S. aureus USA 400 (MRSA); conditions: Staphylococcus aureus USA 400 (MRSA) biofilm on probe, 5 minutes per cycle, % w/v Ca(OCl)2
Protocol: as §1, with “The probe was then exposed to solutions having various concentrations of Calcium hypochlorite solution for multiple cycles, with each cycle including exposure of the probe to solution for a duration of 5 minutes.” left out

[5] = test system: Staphylococcus aureus USA 400 (MRSA); assay: Minimum Inhibitory Concentration (MIC), S. aureus USA 400 (MRSA); conditions: % w/v Ca(OCl)2 in water
[6] = Sample Dilution 1x (5.7 mM hypochlorite ion, 0.041% w/v Ca(OCl)2)
[7] = Sample Dilution 2x of 5.7 mM hypochlorite ion
[8] = Sample Dilution 4x of 5.7 mM hypochlorite ion
[9] = Sample Dilution 8x of 5.7 mM hypochlorite ion (lowest concentration, 0.7 mM)

Substance: hypochlorite ion [OCl^− Solutions]
- Log Reduction Staphylococcus aureus ATCC 10832 1 Cycle [1, 6]: 3.21
- Log Reduction Staphylococcus aureus ATCC 10832 3 Cycles [1, 6]: 2.82
- Log Reduction Staphylococcus aureus ATCC 10832 5 Cycles [1, 6]: 2.66
- Log Reduction Staphylococcus aureus ATCC 10832 1 Cycle [1, 7]: 3.21
- Log Reduction Staphylococcus aureus ATCC 10832 3 Cycles [1, 7]: 2.82
- Log Reduction Staphylococcus aureus ATCC 10832 5 Cycles [1, 7]: 2.66
- Log Reduction Staphylococcus aureus ATCC 10832 1 Cycle [1, 8]: 3.21
- Log Reduction Staphylococcus aureus ATCC 10832 3 Cycles [1, 8]: 2.82
- Log Reduction Staphylococcus aureus ATCC 10832 5 Cycles [1, 8]: 2.66
- Log Reduction Staphylococcus aureus ATCC 10832 1 Cycle [1, 9]: 3.21
- Log Reduction Staphylococcus aureus ATCC 10832 3 Cycles [1, 9]: 2.82
- Log Reduction Staphylococcus aureus ATCC 10832 5 Cycles [1, 9]: 2.66
- Minimum Bactericidal Concentration (MBC) 1 Cycle ([2]; 1 Cycle): <0.005% w/v
- Minimum Bactericidal Concentration (MBC) 3 Cycles ([2]; 3 Cycles): <0.005% w/v
- Minimum Bactericidal Concentration (MBC) 5 Cycles ([2]; 5 Cycles): <0.005% w/v
- Minimum Bactericidal Concentration (MBC) 1 Cycle ([3]; 1 Cycle): <0.005% w/v
- Minimum Bactericidal Concentration (MBC) 3 Cycles ([3]; 3 Cycles): <0.005% w/v
- Minimum Bactericidal Concentration (MBC) 5 Cycles ([3]; 5 Cycles): <0.005% w/v
- Minimum Biofilm Eradication Concentration (MBEC) 1 Cycle ([4]; 1 Cycle): <0.005% w/v
- Minimum Biofilm Eradication Concentration (MBEC) 3 Cycles ([4]; 3 Cycles): <0.005% w/v
- Minimum Biofilm Eradication Concentration (MBEC) 5 Cycles ([4]; 5 Cycles): <0.005% w/v
- Minimum Inhibitory Concentration (MIC) 1 Cycle ([5]; 1 Cycle): <0.005% w/v
- Minimum Inhibitory Concentration (MIC) 3 Cycles ([5]; 3 Cycles): <0.005% w/v
- Minimum Inhibitory Concentration (MIC) 5 Cycles ([5]; 5 Cycles): <0.005% w/v
